Common to all, as to conditions: stereoisomer not certain
The nature of series [1]: RP, Waters CORTECS T3, 100 × 2.1 mm, 2.7 µm, 0.3 mL/min, estimated dead time 0.73 min; A: water + 0.1% formic acid, pH 3; B: methanol + 0.1% formic acid, pH 3; gradient (min/%B) 0/0 1/0 6/5 30/100 35/100 35.1/0 40/0.
Series [2] is described as follows: RP, Waters ACQUITY UPLC BEH C18, 100 × 2.1 mm, 1.7 µm, 0.1 mL/min, estimated dead time 2.2 min; A: water + 0.1% formic acid, pH 3; B: methanol + 0.1% formic acid, pH 3; gradient (min/%B) 0/5 5/5 25/100 30/100 30.1/5 35/5.
The nature of series [3]: RP, Waters CORTECS T3, 100 × 2.1 mm, 2.7 µm, 0.1 mL/min, estimated dead time 2.2 min; A: water + 0.1% formic acid, pH 3; B: methanol + 0.1% formic acid, pH 3; gradient (min/%B) 0/0 1/0 6/5 30/100 35/100 35.1/0 40/0.
Series [4] is described as follows: RP, Waters CORTECS T3, 100 × 2.1 mm, 2.7 µm, 0.3 mL/min, estimated dead time 0.73 min; A: water + 0.1% formic acid, pH 3; B: methanol + 0.1% formic acid, pH 3; gradient (min/%B) 0/5 5/5 25/95 25.1/100 35/100 35.1/5 45/5.
A short description of series [5]: HILIC, Thermo Scientific Accucore HILIC, 100 × 2.1 mm, 2.6 µm, 0.5 mL/min, estimated dead time 0.44 min; A: water + 0.1% formic acid + 10 mM ammonium formate, pH 3; B: 5% water + 95% acetonitrile + 0.1% formic acid + 10 mM ammonium formate, pH 3; gradient (min/%B) 0/95 5/95 20/57 25/57 30/95 40/95.
Series [6] can be described thus: RP, Waters CORTECS T3, 100 × 2.1 mm, 2.7 µm, 0.3 mL/min, estimated dead time 0.73 min; A: water + 0.1% formic acid, pH 3; B: methanol + 0.1% formic acid, pH 3; gradient (min/%B) 0/0 5/0 25/100 30/100 30.1/0 35/0.
A short description of series [7]: RP, Waters ACQUITY UPLC BEH C18, 100 × 2.1 mm, 1.7 µm, 0.1 mL/min, estimated dead time 2.2 min; A: water + 0.1% formic acid, pH 3; B: methanol + 0.1% formic acid, pH 3; gradient (min/%B) 0/5 5/5 25/95 25.1/100 35/100 35.1/5 45/5.
Series [8] can be described thus: RP, Waters ACQUITY UPLC BEH C18, 100 × 2.1 mm, 1.7 µm, 0.1 mL/min, estimated dead time 2.2 min; A: water + 0.045% formic acid + 0.11% ammonium hydroxide, pH 7; B: methanol; gradient (min/%B) 0/5 5/5 25/95 25.1/100 35/100 35.1/5 45/5.
Series [9] is described as follows: RP, Waters ACQUITY UPLC BEH C18, 100 × 2.1 mm, 1.7 µm, 0.1 mL/min, estimated dead time 2.2 min; A: water + 0.1% formic acid, pH 3; B: methanol + 0.1% formic acid, pH 3; gradient (min/%B) 0/5 5/5 25/95 25.1/100 35/100 35.1/5 45/5. This is another data set of the same source.
Series [10] can be described thus: RP, Waters CORTECS T3, 100 × 2.1 mm, 2.7 µm, 0.15 mL/min, estimated dead time 1.5 min; A: water + 0.1% formic acid, pH 3; B: methanol + 0.1% formic acid, pH 3; gradient (min/%B) 0/0 1/0 6/5 30/100 35/100 35.1/0 40/0.
Series [11] is described as follows: RP, Waters CORTECS T3, 100 × 2.1 mm, 2.7 µm, 0.25 mL/min, estimated dead time 0.88 min; A: water + 0.1% formic acid, pH 3; B: methanol + 0.1% formic acid, pH 3; gradient (min/%B) 0/0 1/0 6/5 30/100 35/100 35.1/0 40/0.
Series [12] in a line: RP, Waters CORTECS T3, 100 × 2.1 mm, 2.7 µm, 0.1 mL/min, estimated dead time 2.2 min; A: water + 0.1% formic acid, pH 3; B: methanol + 0.1% formic acid, pH 3; gradient (min/%B) 0/5 5/5 25/95 25.1/100 35/100 35.1/5 45/5.
Series [13] in a line: RP, Waters CORTECS T3, 100 × 2.1 mm, 2.7 µm, 0.2 mL/min, estimated dead time 1.1 min; A: water + 0.1% formic acid, pH 3; B: methanol + 0.1% formic acid, pH 3; gradient (min/%B) 0/0 1/0 6/5 30/100 35/100 35.1/0 40/0.
Series [14] in a line: RP, Waters CORTECS T3, 100 × 2.1 mm, 2.7 µm, 0.3 mL/min, estimated dead time 0.73 min; A: water + 0.1% formic acid, pH 3; B: methanol + 0.1% formic acid, pH 3; gradient (min/%B) 0/5 5/5 25/100 30/100 30.1/5 35/5.
The nature of series [15]: RP, Waters CORTECS T3, 100 × 2.1 mm, 2.7 µm, 0.25 mL/min, estimated dead time 0.88 min; A: water + 0.1% formic acid, pH 3; B: methanol + 0.1% formic acid, pH 3; gradient (min/%B) 0/5 5/5 25/95 25.1/100 35/100 35.1/5 45/5.
The nature of series [16]: HILIC, Waters XBridge BEH Amide, 100 × 2.1 mm, 2.5 µm, 0.5 mL/min, estimated dead time 0.44 min; A: water + 0.1% acetic acid + 10 mM ammonium acetate, pH 4; B: 5% water + 95% acetonitrile + 0.1% acetic acid + 10 mM ammonium acetate, pH 4; gradient (min/%B) 0/95 5/95 20/57 25/57 30/95 40/95.
A short description of series [17]: RP, Waters ACQUITY UPLC BEH C18, 100 × 2.1 mm, 1.7 µm, 0.2 mL/min, estimated dead time 1.1 min; A: water + 0.025% formic acid + 20 mM ammonium acetate + 0.055% ammonium hydroxide, pH 7; B: methanol; gradient (min/%B) 0/5 5/5 25/100 30/100 30.1/5 35/5.
The nature of series [18]: RP, Waters CORTECS T3, 100 × 2.1 mm, 2.7 µm, 0.3 mL/min, estimated dead time 0.73 min; A: water + 0.1% formic acid, pH 3; B: methanol + 0.1% formic acid, pH 3; gradient (min/%B) 0/0 1/0 6/5 30/100 35/100 35.1/0 40/0. This is another data set of the same source.
The nature of series [19]: RP, Waters CORTECS T3, 100 × 2.1 mm, 2.7 µm, 0.15 mL/min, estimated dead time 1.5 min; A: water + 0.1% formic acid, pH 3; B: methanol + 0.1% formic acid, pH 3; gradient (min/%B) 0/5 5/5 25/95 25.1/100 35/100 35.1/5 45/5.
Series [20] can be described thus: HILIC, Merck SeQuant ZIC-HILIC, 150 × 2.1 mm, 5 µm, 0.75 mL/min, estimated dead time 0.44 min; A: water + 0.1% acetic acid + 10 mM ammonium acetate, pH 4; B: 5% water + 95% acetonitrile + 0.1% acetic acid + 10 mM ammonium acetate, pH 4; gradient (min/%B) 0/95 5/95 20/57 25/57 30/95 40/95.
The nature of series [21]: RP, Waters CORTECS T3, 100 × 2.1 mm, 2.7 µm, 0.3 mL/min, estimated dead time 0.73 min; A: water + 0.1% formic acid, pH 3; B: methanol + 0.1% formic acid, pH 3; gradient (min/%B) 0/0 5/0 25/100 30/100 30.1/0 35/0. The source holds these as a separate data set.
Series [22] is described as follows: RP, Waters ACQUITY UPLC BEH C18, 100 × 2.1 mm, 1.7 µm, 0.2 mL/min, estimated dead time 1.1 min; A: water + 0.1% formic acid, pH 3; B: methanol + 0.1% formic acid, pH 3; gradient (min/%B) 0/5 5/5 25/100 30/100 30.1/5 35/5.
Series [23] can be described thus: HILIC, Merck SeQuant ZIC-HILIC, 150 × 2.1 mm, 5 µm, 0.75 mL/min, estimated dead time 0.44 min; A: water + 10 mM ammonium formate, pH 6; B: 5% water + 95% acetonitrile + 10 mM ammonium formate, pH 6; gradient (min/%B) 0/95 5/95 20/57 25/57 30/95 40/95.
A short description of series [24]: RP, Waters CORTECS T3, 100 × 2.1 mm, 2.7 µm, 0.2 mL/min, estimated dead time 1.1 min; A: water + 0.1% formic acid, pH 3; B: methanol + 0.1% formic acid, pH 3; gradient (min/%B) 0/0 1/0 6/5 30/100 35/100 35.1/0 40/0. This is another data set of the same source.
Series [25] in a line: RP, Waters ACQUITY UPLC BEH C18, 100 × 2.1 mm, 1.7 µm, 0.2 mL/min, estimated dead time 1.1 min; A: water + 0.025% formic acid + 20 mM ammonium acetate + 0.055% ammonium hydroxide, pH 7; B: methanol; gradient (min/%B) 0/5 5/5 25/100 30/100 30.1/5 35/5. This is another data set of the same source.
Series [26] in a line: RP, Waters ACQUITY UPLC BEH C18, 100 × 2.1 mm, 1.7 µm, 0.1 mL/min, estimated dead time 2.2 min; A: water + 0.1% formic acid, pH 3; B: methanol + 0.1% formic acid, pH 3; gradient (min/%B) 0/5 5/5 25/95 25.1/100 35/100 35.1/5 45/5. This is another data set of the same source.
Series [27] is described as follows: RP, Thermo Scientific Hypercarb, 150 × 2.1 mm, 5 µm, 0.1 mL/min, estimated dead time 3.3 min; A: water + 0.1% formic acid, pH 3; B: methanol + 0.1% formic acid, pH 3; gradient (min/%B) 0/5 5/5 20/100 35/100 35.1/5 45/5.
A short description of series [28]: RP, Waters CORTECS T3, 100 × 2.1 mm, 2.7 µm, 0.2 mL/min, estimated dead time 1.1 min; A: water + 0.1% formic acid, pH 3; B: methanol + 0.1% formic acid, pH 3; gradient (min/%B) 0/5 5/5 25/95 25.1/100 35/100 35.1/5 45/5.
Series [29] can be described thus: RP, Waters CORTECS T3, 100 × 2.1 mm, 2.7 µm, 0.2 mL/min, estimated dead time 1.1 min; A: water + 0.045% formic acid + 0.11% ammonium hydroxide, pH 7; B: methanol; gradient (min/%B) 0/5 5/5 25/95 25.1/100 35/100 35.1/5 45/5.

Consider `N[C@@H](Cc1cc(I)c(O)c(I)c1)C(=O)O` [3,5-DIIODO-L-TYROSINE], for which the LC retention time is 12.6 min in series [1]; 15.8 min in [2]; 12.5 min in series [3]; 11.1 min in series [4]; 9.05 min in [5]; 12 min in series [6]. The LC retention time in [7] was 16.1 min; in [8] it was 10.8 min; in [9] it was 16.1 min; in [10] it was 15.4 min; in [11], 13.3 min; in [12], 15.8 min. The LC retention time in series [13] was 14.1 min; in [14], 10.9 min.
Regarding `c1ncc2[nH]cnc2n1` [PURINE], the LC retention time is 1.99 min in series [15]; 1.59 min in series [16]; 1.41 min in series [5]; 3.15 min in series [17]; 4.62 min in series [7]; 2.6 min in [18]. The LC retention time was 3.26 min in series [19]; 1.25 min in [20]; 2.61 min in series [21]; 2.36 min in series [22]; 1.31 min in [23]; 2.69 min in [9]. Besides, the LC retention time was 3.64 min in series [24]; 1.74 min in series [25]; 4.65 min in [26]; 35.3 min in [27]; 6.98 min in series [28]; 3.15 min in series [29].
`O=c1[nH]c(=O)c2[nH]c(=O)[nH]c2[nH]1` [URATE]: the LC retention time was 1.08 min in series [15]; 2.74 min in series [2]; 0.9 min in series [4]; 8.77 min in [5]; 2.66 min in series [7]; 0.92 min in series [18]. Besides, the LC retention time was 1.78 min in series [19]; 11.6 min in series [20]; 0.93 min in [21]; 1.38 min in series [22]; 12.3 min in series [23]; 2.72 min in series [9]. For the same molecule, the LC retention time in series [24] was 1.38 min; in [25], 1.36 min; in series [26], 2.7 min; in [28] it was 2.72 min; in series [12], 2.66 min; in series [14] it was 0.93 min.

Source of the values: the RepoRT retention time repository (doi:10.1016/j.jchromb.2020.122105).
